Literature values in patent US20100137247A1, “Anti-inflammatory compositions and methods” (Searete LLC, a limited liability corporation of the State …, priority 2008, published 2010).

Legend:
[1] = 400 mg infused over one hour, single agent
[2] = system: proteasomal activity in cultured breast cancer cells; conditions: disulfiram bound to copper
lethal septic shock = conditions: mice

In the case of CCN(CC)CCCC(C)Nc1ccnc2cc(Cl)ccc12.O=P(O)(O)O.O=P(O)(O)O (stereo not shown) [Chloroquine phosphate, 7-chloro-4-[[4-(diethylamino)-1-methylbutyl]amino]quinoline phosphate (1:2)], the tolerability of infusion [1] is listed as “without complication”.
In the case of CCN(CC)CCCC(C)Nc1ccnc2cc(Cl)ccc12 (stereo not shown) [Chloroquine], the “inhibition of CpG-induced Src family kinase activation or its dependent cellular responses” value (Src family kinase) is listed as “does not inhibit”.
In the case of CCN(CC)C(=S)SSC(=S)N(CC)CC [Disulfiram, 1-(diethylthiocarbamoyldisulfanyl)-N,N-diethyl-methanethioamide], the proteasomal activity [2] is given as “inhibits proteasomal activity”.
For Cl.Cl.Nc1ccccc1Oc1ccc2c(N)nsc2c1 [Example M62812, 3-amino-6-(2-aminophenoxy)-1,2-benzisothiazole dihydrochloride], the “prevention of lethal septic shock” value (lethal septic shock) is listed as “prevents lethal septic shock”.
